Test results: patent US20250052763A1, “COMPOSITIONS AND METHODS FOR IDENTIFYING LIGANDS OF ODORANT RECEPTORS” (Duke University, priority 2021, published 2025)

Tested on: odorant receptors (ORs) expressed by OSNs
Test: pS6-IP-Seq: identification of ORs activated by odorants in vivo
Design: species or system mouse
Conditions: odorant at 3 mM; responsive = log2FC>0 and FDR<0.05
Experimental: Phosphorylated S6 Ribosomal Capture (pS6-IP)
Mice used for pS6-IP were ˜3 weeks old, mixed sex, and littermates. Mice were killed by CO2 asphyxiation and cervical dislocation. Olfactory tissue was rapidly dissected in Buffer B (2.5 mM HEPES KOH pH 7.4, 0.63% glucose, 100 g/mL cycloheximide, 5 mM sodium fluoride, 1 mM sodium orthovanadate, 1 mM sodium pyrophosphate, 1 mM β-glycerophosphate, in Hank's balanced salt solution). Tissue pieces were then minced in 1.35 mL Buffer C (150 mM KCl, 5 mM MgCl2, 10 mM HEPES KOH pH 7.4, […], 2 mM DTT, 100 U/mL RNAsin, 100 µg/mL cycloheximide, protease inhibitor cocktail, 5 mM sodium fluoride, 1 mM sodium orthovanadate, 1 mM sodium pyrophosphate, 1 mM β-glycerophosphate) and subsequently transferred to homogenization tubes for steady homogenization at 250 rpm three times and at 750 rpm nine times at 4° C. […] This solution was mixed and then clarified at a max speed (17,000×g) for 10 min at 4° C. The resulting high-speed supernatant was transferred to a new tube where 20 μL was saved and transferred to a tube containing 350 L buffer RLT. To the remainder of the sample, 1.3 μL of 100 μg/mL cycloheximide, 27 μL of phosphatase inhibitor cocktail (250 mM sodium fluoride, 50 mM sodium orthovanadate, 50 mM sodium pyrophosphate, 50 mM β-glycerophosphate) and 6 μL of anti-pS6 antibody (Cell Signaling D68F8) were added. The sample was gently rotated for 90 min at 4° C. To prepare beads, 100 L of beads (Invitrogen 10002D) was washed three times with 900 L of buffer A (150 mM KCl, 5 mM MgCl2, 10 mM HEPES KOH pH 7.4, 10% NP40, 10% BSA), and once with 500 L of buffer C. Sample homogenate was added to the beads and incubated with gentle rotation for 60 min at 4° C. Following incubation, beads were washed with four times with 700 μL of buffer D (350 mM KCl, 5 mM MgCl2, 10 mM HEPES KOH pH 7.4, 10% NP40, 2 mM DTT, 100 U/mL RNAsin, 100 μg/mL cycloheximide, 5 mM sodium fluoride, 1 mM sodium orthovanadate, 1 mM sodium pyrophosphate, 1 mM β-glycerophosphate). During the final wash, beads were moved to room temperature, wash buffer was removed, and […] of buffer RLT was added. Beads were incubated in buffer RLT for 5 min at room temperature. Buffer RLT containing immunoprecipitated RNA was then eluted and stored at −80° C. until clean up using a kit (Qiagen 74004). cDNA was generated using 11 rounds of amplification with 10 ng RNA input. […] Libraries were sequenced on either HiSeq 2000/2500 (50 base pair single read mode) or NextSeq 500 (75 base pair single read mode) with 6-12 pooled indexed libraries per lane.
Reads mapping to Olfr290 were inferred from ENSMUSG00000070459, with the rationale that this gene model included ENSMUSG00000116179 plus untranslated regions. […] Intact Olfr genes with identifiable sequences were filtered, and p-values were then re-corrected by FDR. […] Raw and processed RNA-Seq datasets generated as part of this study are available from NCBI GEO at accession GSE185415.
First, ORs activated by a set of 61 odorants at various concentrations were determined by leveraging pS6-IP-Seq. […] ORs were considered odor-responsive if enrichment values (log2FC) were positive with a false discovery rate (FDR)<0.05.

SMILES | ORs identified as responsive by pS6-IP-Seq
C[C@]12CCC(=O)C[C@@H]1CC[C@@H]1[C@@H]2CC[C@]2(C)C=CC[C@@H]12 [androstenone] | no ORs were identified as responsive

Same assay, conditions: odorant at 1%; excluded from all analysis

SMILES | number of ORs identified as responsive, relative to the mean
CC(=O)c1ccccc1O [2′-hydroxyacetophenone] | more than five standard deviations away from the mean

Same assay, conditions: odorant at 1%; responsive = log2FC>0 and FDR<0.05

SMILES | ORs identified as responsive by pS6-IP-Seq
C=C(C)C1CCC(C)C(O)C1 (single isomer, unassigned; (+)) [(+)-dihydrocarveol] | no ORs were identified as responsive
C=C(C)C1CCC(C)C(O)C1 (single isomer, unassigned; (-)) [(−)-dihydrocarveol] | no ORs were identified as responsive
C=C1CC/C=C(\C)CC[C@@H]2[C@@H]1CC2(C)C [P-Caryophyllene] | no ORs were identified as responsive
CSC [dimethyl sulfide] | no ORs were identified as responsive
CC(C)=CCC/C(C)=C/CO [geraniol] | no ORs were identified as responsive
c1ccc2[nH]ccc2c1 [indole] | no ORs were identified as responsive
CCC(=O)O [propionic acid] | no ORs were identified as responsive
